Test results reported in ChEMBL document CHEMBL1201862, “PubChem BioAssay data set” (2004).
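Interpolation was linear, between the two tested concentrations surrounding the appropriate level; five concentrations were tested over 48 hours in 96-well plates. Here, GI50 denotes the concentration required for 50% inhibition of growth.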 The source made the active and inactive calls. No stated cut-off is given here; in the data, active = GI50 up to about 1.1 µM and inactive = higher.

Assays:
Assay in all cases: growth of human tumour cells (NCI), 48 h
CAKI-1 = system: CAKI-1
HCT-116 = system: HCT-116
HOP-62 = system: HOP-62
K562 = system: K562
KM12 = system: KM12
MDA-MB-231 = system: MDA-MB-231
NCI-H226 = system: NCI-H226
NCI/ADR-RES = system: NCI/ADR-RES
OVCAR-8 = system: OVCAR-8
PC-3 = system: PC-3
RXF 393 = system: RXF 393
SF-295 = system: SF-295
SK-MEL-28 = system: SK-MEL-28
SN12C = system: SN12C
SNB-19 = system: SNB-19
SR = system: SR
SW-620 = system: SW-620
CCRF-CEM = system: CCRF-CEM
LOX IMVI = system: LOX IMVI
HL-60 = system: HL-60

Measured: GI50

CCOC(=O)[C@@H]1C[C@H]1c1ccc(O)c(O)c1
inactive: CAKI-1 29.7 µM | HCT-116 14.4 µM | HOP-62 84.9 µM | K562 10.9 µM | KM12 > 100 µM | MDA-MB-231 23.2 µM | NCI-H226 70.6 µM | NCI/ADR-RES 43.3 µM | OVCAR-8 37.9 µM | PC-3 14.6 µM | RXF 393 26.6 µM | SF-295 > 100 µM | SK-MEL-28 25.4 µM | SN12C 75.5 µM | SNB-19 > 100 µM | SR 45.3 µM | SW-620 18.6 µM

C[Si](C)(C)CCOCN(C(=O)C1=CCC2(CC1)OCCO2)c1ccccc1I
inactive: CAKI-1 24.2 µM | CCRF-CEM 25.4 µM | HCT-116 14.1 µM | HOP-62 20.7 µM | K562 8.02 µM | KM12 18.7 µM | LOX IMVI 29 µM | MDA-MB-231 22.8 µM | NCI-H226 22.9 µM | NCI/ADR-RES 26.7 µM | OVCAR-8 32.5 µM | PC-3 12.6 µM | RXF 393 17.5 µM | SF-295 15.5 µM | SK-MEL-28 19.4 µM | SN12C 28.1 µM | SNB-19 19.2 µM | SR 15.8 µM | SW-620 22.3 µM

O=C(COc1ccccc1)N(C(=O)N1CCN(c2ccccc2)CC1)S(=O)(=O)c1ccccc1
inactive: CAKI-1 > 100 µM | CCRF-CEM 22.1 µM | HCT-116 44 µM | HL-60 83.4 µM | HOP-62 72.8 µM | K562 33.8 µM | KM12 > 100 µM | LOX IMVI 77.4 µM | MDA-MB-231 52 µM | NCI-H226 57.4 µM | NCI/ADR-RES 56.8 µM | OVCAR-8 35.2 µM | PC-3 50.5 µM | SF-295 > 100 µM | SK-MEL-28 > 100 µM | SN12C 53 µM | SNB-19 83.2 µM | SR 21.7 µM | SW-620 42.5 µM

Cc1cc2ccc(N)nc2nc1O
inactive: CAKI-1 > 100 µM | HCT-116 > 100 µM | HL-60 > 100 µM | KM12 > 100 µM | MDA-MB-231 > 100 µM | NCI-H226 51.6 µM | NCI/ADR-RES > 100 µM | OVCAR-8 > 100 µM | PC-3 > 100 µM | RXF 393 > 100 µM | SF-295 > 100 µM | SN12C > 100 µM | SNB-19 > 100 µM | SR > 100 µM | SW-620 > 100 µM

O=[N+]([O-])c1ccc2c(c1)N=C1OC(c3c[nH]c4ccc(COc5ccccc5)cc34)C(O)=C1N2 (stereo not given)
inactive: CAKI-1 > 100 µM | HCT-116 72.8 µM | HL-60 1.74 µM | HOP-62 60.3 µM | K562 3.73 µM | KM12 > 100 µM | LOX IMVI > 100 µM | MDA-MB-231 56.6 µM | NCI-H226 > 100 µM | NCI/ADR-RES > 100 µM | OVCAR-8 > 100 µM | PC-3 > 100 µM | RXF 393 > 100 µM | SF-295 47.6 µM | SK-MEL-28 > 100 µM | SN12C > 100 µM | SNB-19 > 100 µM | SR 7.71 µM | SW-620 > 100 µM

C/C(=N\N=C(\N)SB(F)F)c1ccc2ccccc2c1
inactive: CAKI-1 > 100 µM | CCRF-CEM 4.37 µM | HCT-116 > 100 µM | K562 > 100 µM | KM12 > 100 µM | LOX IMVI 56.4 µM | MDA-MB-231 > 100 µM | NCI-H226 > 100 µM | NCI/ADR-RES > 100 µM | OVCAR-8 > 100 µM | PC-3 > 100 µM | RXF 393 62.8 µM | SF-295 > 100 µM | SK-MEL-28 > 100 µM | SN12C > 100 µM | SNB-19 > 100 µM | SR 54.5 µM | SW-620 71.8 µM

CCOC(=O)c1c(N2CCOCC2)[nH]c(=O)c(C(c2ccc(OC)cc2)c2c(O)c(C(=O)OCC)c(N3CCOCC3)[nH]c2=O)c1O
inactive: CAKI-1 > 100 µM | CCRF-CEM > 100 µM | HCT-116 > 100 µM | HOP-62 > 100 µM | K562 > 100 µM | KM12 > 100 µM | LOX IMVI > 100 µM | MDA-MB-231 > 100 µM | NCI-H226 > 100 µM | NCI/ADR-RES > 100 µM | OVCAR-8 > 100 µM | PC-3 > 100 µM | RXF 393 > 100 µM | SF-295 > 100 µM | SK-MEL-28 > 100 µM | SN12C > 100 µM | SNB-19 > 100 µM | SR > 100 µM | SW-620 > 100 µM

O=S(=O)(O)c1ccc(/N=N/c2ccc(/N=N/c3c(O)ccc4ccccc34)c(S(=O)(=O)O)c2)cc1
inactive: CAKI-1 > 100 µM | CCRF-CEM > 100 µM | HCT-116 > 100 µM | HL-60 > 100 µM | HOP-62 > 100 µM | K562 > 100 µM | KM12 > 100 µM | MDA-MB-231 > 100 µM | NCI-H226 > 100 µM | NCI/ADR-RES > 100 µM | OVCAR-8 > 100 µM | PC-3 > 100 µM | RXF 393 > 100 µM | SF-295 > 100 µM | SK-MEL-28 > 100 µM | SNB-19 > 100 µM | SR > 100 µM | SW-620 > 100 µM

O=C1/C(=C/c2ccccc2)CCCc2ccccc21
inactive: CAKI-1 22.3 µM | CCRF-CEM 15.7 µM | HCT-116 16.8 µM | HL-60 15.2 µM | HOP-62 19.2 µM | K562 19.2 µM | KM12 18.1 µM | LOX IMVI 18.4 µM | MDA-MB-231 20.1 µM | NCI-H226 18.4 µM | NCI/ADR-RES 20 µM | OVCAR-8 20.4 µM | PC-3 18.1 µM | SF-295 19 µM | SK-MEL-28 17.4 µM | SN12C 19.6 µM | SNB-19 14 µM | SR 14.4 µM | SW-620 17.7 µM

COc1cc2c(cc1OCCCCOc1cc3c(cc1OC)C(=O)N1CCC[C@H]1C(=O)N3)N=C[C@@H]1CCCN1C2=O
inactive: CAKI-1 11.6 µM | HCT-116 16.8 µM | HL-60 9.18 µM | HOP-62 10.9 µM | K562 2.28 µM | KM12 5.02 µM | LOX IMVI 1.99 µM | MDA-MB-231 3.11 µM | NCI-H226 13.5 µM | NCI/ADR-RES 13.4 µM | OVCAR-8 14.7 µM | PC-3 6.05 µM | RXF 393 3.59 µM | SF-295 12.5 µM | SK-MEL-28 14.3 µM | SN12C 9.75 µM | SNB-19 8.18 µM | SR 2.17 µM | SW-620 3.29 µM

COc1ccc(/C=C/c2cc(O)cc(OC)c2)cc1
inactive: CAKI-1 > 100 µM | HCT-116 > 100 µM | HL-60 79.6 µM | HOP-62 > 100 µM | K562 67.9 µM | KM12 40.9 µM | MDA-MB-231 27.8 µM | NCI-H226 > 100 µM | NCI/ADR-RES > 100 µM | OVCAR-8 > 100 µM | PC-3 68.5 µM | RXF 393 > 100 µM | SF-295 75.9 µM | SK-MEL-28 > 100 µM | SN12C 65.2 µM | SNB-19 > 100 µM | SR > 100 µM | SW-620 > 100 µM
